Columns and labels:
human EHMT2 913-1193 = molecular target: T1, human EHMT2 913-1193 (Homo sapiens, UniProt Q96KQ7); experiment: EHMT2 enzyme assay on histone peptide substrate (3H-SAM SPA); conditions: EHMT2 IC50, recombinant human EHMT2 913-1193, histone peptide substrate
T1 sequence (Q96KQ7 913-1193): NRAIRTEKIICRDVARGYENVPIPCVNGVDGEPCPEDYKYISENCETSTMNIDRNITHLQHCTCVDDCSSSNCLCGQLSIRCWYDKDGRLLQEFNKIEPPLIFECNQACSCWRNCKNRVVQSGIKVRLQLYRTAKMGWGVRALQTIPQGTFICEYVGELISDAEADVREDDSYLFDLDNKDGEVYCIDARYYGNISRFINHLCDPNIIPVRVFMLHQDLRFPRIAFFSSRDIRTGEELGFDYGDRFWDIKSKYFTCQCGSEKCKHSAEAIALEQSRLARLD

human EHMT1 982-1266 = molecular target: T2, human EHMT1 982-1266 (Homo sapiens, UniProt Q9H9B1); experiment: EHMT1 enzyme assay on histone peptide substrate (3H-SAM SPA); conditions: EHMT1 IC50, recombinant human EHMT1 982-1266, histone peptide substrate
T2 sequence (Q9H9B1 982-1266): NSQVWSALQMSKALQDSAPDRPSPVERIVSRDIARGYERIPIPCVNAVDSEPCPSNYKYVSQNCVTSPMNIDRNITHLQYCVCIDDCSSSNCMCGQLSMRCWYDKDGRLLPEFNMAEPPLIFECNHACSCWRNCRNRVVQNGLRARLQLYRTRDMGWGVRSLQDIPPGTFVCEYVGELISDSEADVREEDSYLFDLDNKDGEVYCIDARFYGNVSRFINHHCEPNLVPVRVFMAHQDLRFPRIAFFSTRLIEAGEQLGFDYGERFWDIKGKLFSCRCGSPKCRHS

hERG potassium channels = hERG potassium channels (Homo sapiens, UniProt Q12809); experiment: In vitro hERG assay (SyncroPatch whole-cell recording); conditions: hERG IC50, SyncroPatch, room temperature
Description: CHO cells stably expressing hERG potassium channels from Sophion Biosciences were used for this test. The cells were cultured in a humidified and air-controlled (5% CO2) incubator at 37° C.
The CHO hERG Culture Medium consisted of 500 mL Ham's F12 (Invitrogen), 50 mL FBS (HyClone), 1 mL G418/Geneticin (Invitrogen, and 1 mL Hygromycin B (Invitrogen)
The CHO cells which were at least two days after plating and more than 75% confluent would be used for experiments. Before testing, cells were harvested using TrypLE and resuspended in the physiological solution at the room temperature.
For the electrophysiological recordings the following solutions were used (Table 5). The physiological solution and external solution were prepared at least one month. The intracellular solution was prepared in batches aliquoted, and stored at 4° C. until used.
Test compounds were dissolved in 100% DMSO to obtain stock solutions for different test concentrations. Then the stock solutions were further diluted into external solution to achieve final concentrations for testing. Visual check for precipitation was conducted before testing. Final DMSO concentration in external solution was not more than 0.30% for the test compounds.
Voltage command protocol: From this holding potential of −80 mV, the voltage was first stepped to −50 mV for 80 ms for leak subtraction, and then stepped to +20 mV for 4800 ms to open hERG channels. After that, the voltage was stepped back down to −50 mV for 5000 ms, causing a “rebound” or tail current, which was measured and collected for data analysis. Finally, the voltage was stepped back to the holding potential (−80 mV, 1000 ms). This voltage command protocol was repeated every 20000 msec. This command protocol was performed continuously during the test (vehicle control and test compound).
hERG SyncroPatch assay was conducted at room temperature. The Setup, Prime Chip, Catch and Seal Cells, Amplifier Settings, Voltage and Application Protocols were established with Biomek Software (Nanion). One addition of 40 μL of the vehicle was applied, followed by 300s for a baseline period. Then the doses of the compounds were added with 40 μL. The exposure of test compound at each concentration was no less than 300s. […] Five concentrations (0.30 μM, 1.00 μM, 3.00 μM, 10.00 μM and 30.00 μM) were tested for each compound. Minimum 2 replicates per concentration were obtained.
Within each well recording, percent of control values were calculated for each test compound concentration current response based on peak current in presence of reference control (current response/peak current)×100%. The Dose-Response curves were fit to the standard Hill equation as shown below:
Where X is the logarithm of concentration, Ipost cpd/Ipre cpa is the normalized peak current amplitude, Top is 1 and Bottom is equal to 0.
Curve-fitting and IC50 calculations were performed by GraphPad Prism 5.0.

H3K9me2 in HCT116 cells = experiment: HCT116 H3K9me2 in-cell western assay; format: cell-based; conditions: Homo sapiens, HCT-116, 72 h, HCT116 cells, 72 hours incubation; read-out: H3K9me2 ICW IC50
In short: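 HCT116 cells (2,000/well) were treated for 72 h at 37° C, 5% CO2, with ten two-fold dilutions from 10 μM in duplicate. After PFA fixation, cells were stained overnight at 4° C with anti-H3K9me2, then with an 800 CW secondary plus DRAQ5.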

Chain of hERG potassium channels (Q12809 whole entry): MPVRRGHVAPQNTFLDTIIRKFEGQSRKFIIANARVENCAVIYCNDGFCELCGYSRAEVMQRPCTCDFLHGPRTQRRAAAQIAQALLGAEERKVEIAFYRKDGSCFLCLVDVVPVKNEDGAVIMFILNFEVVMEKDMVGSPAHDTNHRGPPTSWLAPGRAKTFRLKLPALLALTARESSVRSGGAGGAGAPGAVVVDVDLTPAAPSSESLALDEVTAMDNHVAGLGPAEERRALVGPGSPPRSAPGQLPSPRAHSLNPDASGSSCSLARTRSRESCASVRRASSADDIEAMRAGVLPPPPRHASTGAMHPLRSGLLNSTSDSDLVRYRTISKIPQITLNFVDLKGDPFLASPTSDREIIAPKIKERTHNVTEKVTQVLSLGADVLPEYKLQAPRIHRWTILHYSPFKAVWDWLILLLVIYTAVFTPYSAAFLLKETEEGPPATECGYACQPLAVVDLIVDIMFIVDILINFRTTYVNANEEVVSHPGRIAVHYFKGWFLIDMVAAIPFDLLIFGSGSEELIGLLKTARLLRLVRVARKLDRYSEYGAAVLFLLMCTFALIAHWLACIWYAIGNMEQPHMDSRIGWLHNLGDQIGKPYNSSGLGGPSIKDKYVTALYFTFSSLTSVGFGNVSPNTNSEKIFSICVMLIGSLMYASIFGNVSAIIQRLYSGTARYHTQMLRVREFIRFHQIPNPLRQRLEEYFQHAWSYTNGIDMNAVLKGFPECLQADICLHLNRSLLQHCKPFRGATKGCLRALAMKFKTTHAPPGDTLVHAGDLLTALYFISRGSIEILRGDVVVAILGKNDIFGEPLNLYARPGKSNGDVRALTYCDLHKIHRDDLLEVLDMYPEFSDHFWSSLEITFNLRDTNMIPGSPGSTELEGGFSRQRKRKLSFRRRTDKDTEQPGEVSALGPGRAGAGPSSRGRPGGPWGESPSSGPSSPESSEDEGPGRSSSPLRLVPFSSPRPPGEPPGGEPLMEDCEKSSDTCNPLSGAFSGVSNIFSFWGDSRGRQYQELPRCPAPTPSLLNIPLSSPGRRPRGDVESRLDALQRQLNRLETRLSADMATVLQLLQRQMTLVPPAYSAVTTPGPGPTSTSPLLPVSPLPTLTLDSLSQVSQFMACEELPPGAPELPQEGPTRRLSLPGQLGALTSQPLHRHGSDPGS

Row | SMILES | IC50 (human EHMT2 913-1193) | IC50 (human EHMT1 982-1266) | IC50 (hERG potassium channels) | IC50 (H3K9me2 in HCT116 cells)
1 | CNc1cc(C)nc(Nc2cc3c(c(C4=CCNCCC4)c2F)OCCO3)n1 [Compound 191] | < 100 nM | < 100 nM | 2000 to 5000 nM | < 100 nM
2 | CNc1cc(C)nc(Nc2cc3c(c(C4=CCNCCC4)c2F)OCCC3)n1 [Compound 193, N2-[7-fluoro-8-(2,3,4,7-tetrahydro-1H-azepin-5-yl)chroman-6-yl]-N4,6-dimethyl-pyrimidine-2,4-diamine] | < 100 nM | < 100 nM | 5000 to 10000 nM | < 100 nM
3 | CCN1CC=C(c2c(F)c(Nc3nc(C)cc(NC)n3)cc3c2OCC3)CCC1 [Compound 201] | < 100 nM | < 100 nM | 5000 to 10000 nM | < 100 nM
4 | COCCNc1cc(C)nc(Nc2cc3c(c(C4=CCNCCC4)c2F)OCC3)n1 [Compound 289, N2-[6-fluoro-7-(2,3,4,7-tetrahydro-1H-azepin-5-yl)-2,3-dihydrobenzofuran-5-yl]-N4-(2-methoxyethyl)-6-methyl-pyrimidine-2,4-diamine] | < 100 nM | < 100 nM | > 10000 nM | < 100 nM
5 | COCCNc1cc(C)nc(Nc2cc3c(c(C4=CCN(C)CCC4)c2F)OCC3)n1 [Compound 290] | 100 to 500 nM | < 100 nM | > 10000 nM | < 100 nM
6 | Cc1cc(NCC(F)(F)F)nc(Nc2cc3c(c(C4=CCNCCC4)c2)OCC3)n1 [Compound 322] | 100 to 500 nM | < 100 nM | 2000 to 5000 nM | 100 to 500 nM
7 | CNc1cc(C(C)C)nc(Nc2cc3c(c(C4=CCN(C)CCC4)c2)OCC3)n1 [Compound 323] | 100 to 500 nM | 100 to 500 nM | 2000 to 5000 nM | 100 to 500 nM
8 | COCCNc1cc(C)nc(Nc2cc3c(c(C4=CCN(C)CCC4)c2)OCC3)n1 [Compound 324] | 100 to 500 nM | 100 to 500 nM | 5000 to 10000 nM | 100 to 500 nM
9 | Cc1cc(NC2CCC2)nc(Nc2cc3c(c(C4=CCNCCC4)c2)OCC3)n1 [Compound 325] | 100 to 500 nM | < 100 nM | 2000 to 5000 nM | 100 to 500 nM
10 | CNc1cc(C(C)C)nc(Nc2cc3c(c(C4=CCNCCC4)c2)OCC3)n1 [Compound 326] | < 100 nM | < 100 nM | 2000 to 5000 nM | < 100 nM
11 | COCCNc1cc(C)nc(Nc2cc3c(c(C4=CCNCCC4)c2)OCC3)n1 [Compound 327] | < 100 nM | < 100 nM | > 10000 nM | < 100 nM
12 | CNc1cc(C)nc(Nc2cc3c(c(C4=CCNCCC4)c2F)OCC3)c1 [Compound 328] | < 100 nM | < 100 nM | > 10000 nM | < 100 nM
13 | CNc1cc(C)nc(Nc2cc3c(c(C4C[C@@H]5CN(C)C[C@@H]5C4)c2)OCCO3)n1 (some centres unmarked) [Compound 329] | 500 to 2000 nM | 100 to 500 nM | > 10000 nM | 100 to 500 nM
14 | CNc1ccnc(Nc2cc3c(c(C4=CCNCCC4)c2)OCC3)n1 [Compound 330] | < 100 nM | < 100 nM | > 10000 nM | < 100 nM
15 | CNc1ccnc(Nc2cc3c(c(C4=CCN(C)CCC4)c2)OCC3)n1 [Compound 331] | 100 to 500 nM | < 100 nM | > 10000 nM | < 100 nM
16 | CNc1cc(C)nc(Nc2cc3c(c(C4=CCNCCC4)c2)CCO3)n1 [Compound 332] | 100 to 500 nM | 100 to 500 nM | > 10000 nM | 100 to 500 nM
17 | CNc1cc(C)nc(Nc2cc3c(c(C4C[C@H]5CNC[C@H]5C4)c2)OCCO3)n1 (some centres unmarked) [Compound 334] | 500 to 2000 nM | 100 to 500 nM | > 10000 nM | 100 to 500 nM

From patent US20240368139A1, “NOVEL MODULATORS OF EHMT1 AND EHMT2 AND THERAPEUTIC USE THEREOF” (Tango Therapeutics, Inc., priority 2021, published 2024)
